Laboratory results from paper PMC3569154 (Clinical Psychopharmacology and Neuroscience, 2012).

Key:
[1] = target: T1, [^3H]glycine uptake sites (GlyT-1) (Mus musculus, UniProt P28571); test: Inhibition of [^3H]glycine uptake in mouse brain homogenates; assay type: biochemical
T1 sequence (P28571 1-692): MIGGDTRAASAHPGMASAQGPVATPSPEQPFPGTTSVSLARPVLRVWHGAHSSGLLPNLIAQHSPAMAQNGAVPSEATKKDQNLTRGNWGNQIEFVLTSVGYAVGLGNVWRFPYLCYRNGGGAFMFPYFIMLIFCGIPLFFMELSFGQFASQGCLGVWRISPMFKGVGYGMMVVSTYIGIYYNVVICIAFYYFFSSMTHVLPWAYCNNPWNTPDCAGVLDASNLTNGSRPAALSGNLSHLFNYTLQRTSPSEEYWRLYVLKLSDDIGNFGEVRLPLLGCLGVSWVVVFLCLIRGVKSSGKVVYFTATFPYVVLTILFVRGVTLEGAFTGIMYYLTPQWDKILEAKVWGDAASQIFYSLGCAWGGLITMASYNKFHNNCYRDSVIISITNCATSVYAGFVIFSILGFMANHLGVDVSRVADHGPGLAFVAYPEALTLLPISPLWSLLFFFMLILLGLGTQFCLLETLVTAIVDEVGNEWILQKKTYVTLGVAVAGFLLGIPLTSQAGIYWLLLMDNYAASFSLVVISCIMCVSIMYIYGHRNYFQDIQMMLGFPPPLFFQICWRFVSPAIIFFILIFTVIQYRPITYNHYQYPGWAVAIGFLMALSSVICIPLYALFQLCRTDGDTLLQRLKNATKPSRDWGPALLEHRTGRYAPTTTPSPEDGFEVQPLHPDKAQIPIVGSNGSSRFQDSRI

[2] = test system: 28-standard receptor-binding profile; conditions: 1µM; cited from earlier work

IC50 [1]: 2.7 nM
Structure (SMILES): CN1CCCC[C@@H]1[C@@H](NC(=O)c1nccc(C(F)(F)F)c1Cl)c1ccsc1 [CHIBA-3007, 3-chloro-N-((S)-((R)-1-methylpiperidin-2-yl)(thiophen-3-yl)methyl)-4-(trifluoromethyl)picolinamide]
inhibition in 28-standard receptor-binding profile [2]: < 50%
